Experimental data from PubChem BioAssay AID330 (DTP/NCI, 2004).
Toxic doses and inconclusive results are not listed.

Test system: P388 leukemia ip, CD2F1 mice, survival T/C
Experiment: NCI In Vivo Anticancer Drug Screen. Data for tumor model P388 Leukemia (intraperitoneal) in CD2F1 (CDF1) mice
Settings: endpoint: median survival time, higher = longer survival
In short: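 Mice carrying the transplanted tumor received test compound or vehicle. Survival was recorded in each group, and the value is the treated-group measurement divided by that of the vehicle-treated control group.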

[1] = dose: 100.0 mg/kg/injection, schedule: Q01DX009 (ip), vehicle: saline with Tween-80
[2] = dose: 200.0 mg/kg/injection, schedule: Q01DX009 (ip), vehicle: saline with Tween-80
[3] = dose: 400.0 mg/kg/injection, schedule: Q01DX009 (ip), vehicle: saline with Tween-80
[4] = dose: 50.0 mg/kg/injection, schedule: Q01DX005 (ip), vehicle: saline with Tween-80
[5] = dose: 100.0 mg/kg/injection, schedule: Q01DX005 (ip), vehicle: saline with Tween-80
[6] = dose: 200.0 mg/kg/injection, schedule: Q01DX005 (ip), vehicle: saline with Tween-80
[7] = dose: 100.0 mg/kg/injection, schedule: Q04DX003 (ip), vehicle: saline with Tween-80
[8] = dose: 200.0 mg/kg/injection, schedule: Q04DX003 (ip), vehicle: saline with Tween-80
[9] = dose: 400.0 mg/kg/injection, schedule: Q04DX003 (ip), vehicle: saline with Tween-80
[10] = dose: 50.0 mg/kg/injection, schedule: Q01DX005 (ip), vehicle: Klucel (hydroxypropylcellulose) (HPC)
[11] = dose: 100.0 mg/kg/injection, schedule: Q01DX005 (ip), vehicle: Klucel (hydroxypropylcellulose) (HPC)
[12] = dose: 200.0 mg/kg/injection, schedule: Q01DX005 (ip), vehicle: Klucel (hydroxypropylcellulose) (HPC)
[13] = dose: 50.0 mg/kg/injection, schedule: Q01DX009 (ip), vehicle: saline with Tween-80

NC(CCCOS(=O)(=O)O)Cc1ccc2ccccc2c1 (stereo not drawn)
T/C (dose: 100.0 mg/kg/injection, schedule: Q04DX003 (ip), vehicle: Klucel (hydroxypropylcellulose) (HPC)): 100 % of control
T/C (dose: 200.0 mg/kg/injection, schedule: Q04DX003 (ip), vehicle: Klucel (hydroxypropylcellulose) (HPC)): 100 % of control
T/C (dose: 400.0 mg/kg/injection, schedule: Q04DX003 (ip), vehicle: Klucel (hydroxypropylcellulose) (HPC)): 94 % of control

c1ccc(C2=NC3CCCCC3N=C2c2ccccc2)cc1 (stereo not drawn)
T/C [1]: 100 % of control
T/C [2]: 100 % of control
T/C [3]: 100 % of control

NS(=O)(=O)c1ccc(Nc2c3ccc(Cl)cc3nc3ncccc23)cc1
T/C [4]: 108 % of control
T/C [5]: 101 % of control
T/C [6]: 94 % of control

Cc1cc(OC2OC(CO)C(O)C(O)C2O)ccc1O (stereo not drawn)
T/C (dose: 25.0 mg/kg/injection, schedule: Q01DX009 (ip), vehicle: Klucel (hydroxypropylcellulose) (HPC)): 87 % of control
T/C (dose: 50.0 mg/kg/injection, schedule: Q01DX009 (ip), vehicle: Klucel (hydroxypropylcellulose) (HPC)): 96 % of control
T/C (dose: 200.0 mg/kg/injection, schedule: Q01DX009 (ip), vehicle: Klucel (hydroxypropylcellulose) (HPC)): 89 % of control

CCOC(=O)CN=CC1CCC=CO1 (stereo not drawn)
T/C [7]: 100 % of control
T/C [8]: 100 % of control
T/C [9]: 100 % of control

O=C1Nc2ccccc2/C1=N/N1C(=O)c2ccccc2C1=O
T/C [10]: 91 % of control
T/C [11]: 92 % of control
T/C [12]: 97 % of control

COC1=CC(=O)C(CCC(C)=O)=CC1=O
T/C (dose: 3.75 mg/kg/injection, schedule: Q01DX005 (ip), vehicle: Klucel (hydroxypropylcellulose) (HPC)): 99 % of control
T/C (dose: 7.5 mg/kg/injection, schedule: Q01DX005 (ip), vehicle: Klucel (hydroxypropylcellulose) (HPC)): 98 % of control
T/C (dose: 15.0 mg/kg/injection, schedule: Q01DX005 (ip), vehicle: Klucel (hydroxypropylcellulose) (HPC)): 94 % of control

O=C1[O][Sn]2([Cl])[NH]C1C[S]2 (stereo not drawn)
T/C [10]: 100 % of control
T/C [11]: 102 % of control

CC1C(c2ccccc2)OC(c2ccccc2)N1C (stereo not drawn)
T/C (dose: 12.5 mg/kg/injection, schedule: Q01DX005 (ip), vehicle: water): 93 % of control
T/C (dose: 25.0 mg/kg/injection, schedule: Q01DX005 (ip), vehicle: water): 93 % of control
T/C (dose: 50.0 mg/kg/injection, schedule: Q01DX005 (ip), vehicle: water): 98 % of control
T/C (dose: 100.0 mg/kg/injection, schedule: Q01DX005 (ip), vehicle: water): 93 % of control
T/C (dose: 200.0 mg/kg/injection, schedule: Q01DX005 (ip), vehicle: water): 98 % of control

CC(Cl)C(=O)N/N=C(/c1ccccc1)C(C)(C)C (stereo not drawn)
T/C [13]: 89 % of control
T/C [1]: 86 % of control

COc1cc(-c2ccc(Nc3ccccc3C(=O)O)c(OC)c2)ccc1N
T/C (dose: 50.0 mg/kg/injection, schedule: Q04DX003 (ip), vehicle: saline with Tween-80): 110 % of control
T/C [7]: 150 % of control
T/C (dose: 132.0 mg/kg/injection, schedule: Q04DX003 (ip), vehicle: saline with Tween-80): 104 % of control

N#C/C(=C\Nc1ccccn1)C(=O)c1ccco1
T/C (dose: 60.0 mg/kg/injection, schedule: Q01DX005 (ip), vehicle: saline with Tween-80): 91 % of control
T/C (dose: 120.0 mg/kg/injection, schedule: Q01DX005 (ip), vehicle: saline with Tween-80): 100 % of control

NC(N)=N/N=C1\C(=O)N(c2cccc([N+](=O)[O-])c2)C(=O)C1C(=O)Nc1cccc([N+](=O)[O-])c1 (stereo not drawn)
T/C (dose: 100.0 mg/kg/injection, schedule: Q01DX001 (ip), vehicle: saline with Tween-80): 102 % of control
T/C (dose: 200.0 mg/kg/injection, schedule: Q01DX001 (ip), vehicle: saline with Tween-80): 100 % of control

C=C(C(=O)OC1C/C(C)=C/C(O)C/C(C)=C/C2OC(=O)C(=C)C21)C(C)O (stereo not drawn)
T/C (dose: 25.0 mg/kg/injection, schedule: Q04DX002 (ip), vehicle: Klucel (hydroxypropylcellulose) (HPC)): 109 % of control
T/C (dose: 25.0 mg/kg/injection, schedule: Q04DX002 (ip), vehicle: saline with Tween-80): 110 % of control
T/C (dose: 50.0 mg/kg/injection, schedule: Q04DX002 (ip), vehicle: Klucel (hydroxypropylcellulose) (HPC)): 117 % of control
T/C (dose: 50.0 mg/kg/injection, schedule: Q04DX002 (ip), vehicle: saline with Tween-80): 102 % of control
T/C (dose: 100.0 mg/kg/injection, schedule: Q04DX002 (ip), vehicle: Klucel (hydroxypropylcellulose) (HPC)): 117 % of control
T/C (dose: 200.0 mg/kg/injection, schedule: Q04DX002 (ip), vehicle: saline with Tween-80): 124 % of control

Cc1ccc2c(c1)C1(C)C=C(CN3CCN(C)CC3)C(=O)CC1O2 (stereo not drawn)
T/C (dose: 50.0 mg/kg/injection, schedule: Q01DX005 (ip), vehicle: saline): 108 % of control
T/C (dose: 100.0 mg/kg/injection, schedule: Q01DX005 (ip), vehicle: saline): 103 % of control

Br/C(C=Nc1ccccc1)=C\Nc1ccccc1
T/C [7]: 118 % of control
T/C [8]: 109 % of control
T/C [9]: 104 % of control

CCN(CC)CCOc1ccc(C(=O)CC(=O)c2c(-c3ccccc3)n(C)c3ccccc23)cc1
T/C (dose: 50.0 mg/kg/injection, schedule: Q01DX001 (ip), vehicle: saline): 101 % of control
T/C (dose: 100.0 mg/kg/injection, schedule: Q01DX001 (ip), vehicle: saline): 94 % of control
T/C (dose: 200.0 mg/kg/injection, schedule: Q01DX001 (ip), vehicle: saline): 91 % of control

NC(COc1ccccc1)Cc1ccccc1 (stereo not drawn)
T/C (dose: 12.5 mg/kg/injection, schedule: Q04DX003 (ip), vehicle: saline): 100 % of control
T/C (dose: 25.0 mg/kg/injection, schedule: Q04DX003 (ip), vehicle: saline): 100 % of control
T/C (dose: 50.0 mg/kg/injection, schedule: Q04DX003 (ip), vehicle: saline): 102 % of control
T/C (dose: 100.0 mg/kg/injection, schedule: Q04DX003 (ip), vehicle: saline): 99 % of control

CCCCCCCC/C=C\CCCCCCCC(=O)OCCCCCCCCCCCCCCCCC
T/C [1]: 100 % of control
T/C [2]: 100 % of control
T/C [3]: 96 % of control

CCOC(=O)c1nc2cc(C)c(C)cc2[nH]c1=O
T/C [7]: 95 % of control
T/C [8]: 100 % of control
T/C [9]: 104 % of control

COC(=O)/C=C\SC(=S)C1CCCC1=N (stereo not drawn)
T/C [13]: 98 % of control
T/C [1]: 94 % of control
T/C [2]: 91 % of control

CC(=O)c1c(OCC(O)CN(CCO)CCO)ccc2c(C)cc(=O)oc12 (stereo not drawn)
T/C [4]: 107 % of control
T/C [5]: 104 % of control
T/C [6]: 108 % of control

C=C1CC2C3CC=C4CC(OC(C)=O)CCC4(C)C3CCC2(C)C1=O (stereo not drawn)
T/C (dose: 12.5 mg/kg/injection, schedule: Q01DX009 (ip), vehicle: saline with Tween-80): 94 % of control
T/C (dose: 25.0 mg/kg/injection, schedule: Q01DX009 (ip), vehicle: saline with Tween-80): 92 % of control
T/C (dose: 50.0 mg/kg/injection, schedule: Q01DX009 (ip), vehicle: saline): 104 % of control
T/C (dose: 100.0 mg/kg/injection, schedule: Q01DX009 (ip), vehicle: saline): 110 % of control

CC1=Nc2ccccc2OC2(C1)C(C1COC(C)(C)O1)OC1OC(C)(C)OC12 (stereo not drawn)
T/C [4]: 99 % of control
T/C [5]: 95 % of control
T/C [6]: 104 % of control

O=C(N/C(=C/c1ccccc1)C(=O)N1CCN(C(=O)/C(=C\c2ccccc2)NC(=O)c2ccccc2)CC1)c1ccccc1
T/C [4]: 93 % of control
T/C [5]: 92 % of control
T/C [6]: 93 % of control

CCC(c1ccc(OCC(=O)N2CC2)cc1)C(CC)c1ccc(OCC(=O)N2CC2)cc1 (stereo not drawn)
T/C (dose: 100.0 mg/kg/injection, schedule: Q04DX003 (ip), vehicle: suspension in saline): 99 % of control
T/C (dose: 200.0 mg/kg/injection, schedule: Q04DX003 (ip), vehicle: suspension in saline): 98 % of control
T/C (dose: 400.0 mg/kg/injection, schedule: Q04DX003 (ip), vehicle: suspension in saline): 100 % of control

Cc1ccccc1N1CCN(C(=O)c2nc3ccccc3[nH]2)CC1
T/C [10]: 91 % of control
T/C [11]: 87 % of control
T/C [12]: 101 % of control

COc1cc2c(cc1OC)CC[N+](Cc1ccc([N+](=O)[O-])cc1)=C2
T/C (dose: 12.5 mg/kg/injection, schedule: Q01DX001 (ip), vehicle: saline + alcohol): 98 % of control
T/C (dose: 25.0 mg/kg/injection, schedule: Q01DX001 (ip), vehicle: saline + alcohol): 95 % of control
T/C (dose: 50.0 mg/kg/injection, schedule: Q01DX001 (ip), vehicle: saline + alcohol): 95 % of control

Cc1cccc(NC(=S)/N=C(\SCc2ccccc2)N(C)c2ccccc2)c1
T/C [4]: 90 % of control
T/C [5]: 93 % of control

O=C(CCN1CCC23c4c5ccc(O)c4OC2C(O)C=CC3C1C5)c1ccccc1 (stereo not drawn)
T/C [10]: 88 % of control
T/C [11]: 99 % of control

CCCC(=O)NNCN1C(=O)c2ccccc2C1=O
T/C [10]: 89 % of control
T/C [11]: 86 % of control
T/C [12]: 93 % of control
